Test results taken from US11752150B2, “Anti-tumor immunotherapy enhancer” (Nobuo Tsukamoto, priority 2017, dated 2023).

System: mouse cancer cells MCA205 IDO1WT
Assay: Tumor volume in C57BL/6 mice implanted with MCA205 IDO1WT cells (1-MT and Y15)
Type: in vivo
Conditions: MCA205 IDO1WT in C57BL/6; Y15 600 μg/animal i.p. once a day from Day 5; 1-MT 4 mg/mL in drinking water from Day 5; n=5; FIG. 23
Experimental: On Day 0, 5×10^5 mouse cancer cells MCA205 IDO1WT expressing the wild-type mouse IDO1 gene were implanted into the ventral side of C57BL/6 mice.
The FAK inhibitor Y15 (MedChem Express) was dissolved in PBS and administered intraperitoneally once a day from Day 5 at 600 μg/100 μl/animal. In the control group, PBS was intraperitoneally administered at 100 μl/animal once a day from Day 5.
The major axis and minor axis of the tumor were measured every two days. The tumor volume was calculated as 0.5×(major axis)×(minor axis)^2.

With `Cl.Cl.Cl.Cl.Nc1cc(N)c(N)cc1N` [Y15, 1,2,4,5-benzenetetraamine tetrahydrochloride] the tumor volume was “a smaller tumor was formed as compared with the group to which neither drug was administered”.
